Some test systems named below: UACC-257 melanoma; SF-295 CNS; HCT-15 colon; K-562 leukemia; SNB-75 CNS; EKVX NSCLC; LOX IMVI melanoma; U251 CNS; 786-0 renal; SF-539 CNS.
Assay in all cases: NCI-60 cell line screen, 48 h

SMILES strings stand for the structures. Values joined by “and” are separate entries in the source; they are usually repeats but may differ in a detail not shown here. Identical values can stand only once.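 Five concentrations, 48 hours, 96-well plates. GI50: concentration for 50% inhibition of growth. TGI: total growth inhibition.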 Bounds are passed on as bounds.

Consider `CN1CCN(c2ccc3nc4c(nc3c2C(F)(F)F)C(=O)c2ncccc2C4=O)CC1`, for which the GI50 was 0.873 µM in the assay with UACC-257 melanoma; 1.27 µM in the assay with SF-295 CNS; 1.19 µM with HCT-15 colon; 1.43 µM in the assay on K-562 leukemia; 1.11 µM with SNB-75 CNS; 1.79 µM in the assay with EKVX NSCLC. Also, the GI50 in the assay with LOX IMVI melanoma was 1.04 µM; with U251 CNS it was 1.38 µM; in the assay with 786-0 renal it was 2.02 µM; with SF-539 CNS, 1.51 µM. Besides, the TGI with UACC-257 melanoma is 2.4 µM; in the assay with SF-295 CNS it was 2.58 µM; in the assay with HCT-15 colon, 3.11 µM; in the assay with K-562 leukemia it was 7.75 µM; in the assay on SNB-75 CNS, 2.32 µM; in the assay on EKVX NSCLC, 3.87 µM. Further, the TGI was 2.66 µM in the assay with LOX IMVI melanoma, 4.04 µM in the assay with U251 CNS, 4.9 µM with 786-0 renal and 2.85 µM in the assay with SF-539 CNS.
On to `CC(C)[O-].CC(C)[O-].[O-]c1cccc2cccnc12.[O-]c1cccc2cccnc12.[Ti+4]`, for which the TGI in the assay on UACC-257 melanoma, in the assay with SF-295 CNS, with HCT-15 colon, in the assay with K-562 leukemia, with SNB-75 CNS and in the assay on EKVX NSCLC was greater than 100 µM each time. Further, the TGI was greater than 100 µM in the assay with LOX IMVI melanoma, greater than 100 µM with U251 CNS, 20.9 µM in the assay on 786-0 renal and greater than 100 µM with SF-539 CNS. Also, the GI50 in the assay with SF-295 CNS is greater than 100 µM; in the assay with HCT-15 colon, 4.79 µM and 8.05 µM; in the assay with K-562 leukemia it was 3.04 µM and 3.37 µM; in the assay on SNB-75 CNS, greater than 100 µM; in the assay on EKVX NSCLC it was greater than 100 µM; with LOX IMVI melanoma it was 74 µM. Further, the GI50 with U251 CNS is greater than 100 µM; with 786-0 renal, 3.38 µM and 4.05 µM; with SF-539 CNS it was 97 µM.
Consider `CCOC(=O)C1CC/C(=C(/C#N)C(=O)OC)N1` (stereo not drawn), for which the TGI in the assay on UACC-257 melanoma, in the assay on SF-295 CNS, in the assay with HCT-15 colon, in the assay with K-562 leukemia, with SNB-75 CNS and in the assay with EKVX NSCLC was greater than 100 µM each time. The TGI with LOX IMVI melanoma, in the assay on U251 CNS, with 786-0 renal and in the assay on SF-539 CNS was greater than 100 µM in each case.
As to `COc1cc2c3c(c1O)C1(C=CC(=O)C=C1)CC3N(C)CC2` (stereo not drawn), the TGI was 27.7 µM in the assay with UACC-257 melanoma; 24.3 µM in the assay with SF-295 CNS; 19 µM in the assay with HCT-15 colon; greater than 100 µM in the assay with K-562 leukemia; 43.4 µM in the assay on SNB-75 CNS; 25.6 µM in the assay on EKVX NSCLC. The TGI came out at 9.28 µM in the assay with LOX IMVI melanoma, 15.4 µM with U251 CNS, 15.6 µM with 786-0 renal and 28.8 µM in the assay on SF-539 CNS.
Regarding `O=C1c2ccccc2C(=O)c2sc(Nc3ccc(Cl)c(Cl)c3)nc21`, the TGI amounted to 8.63 µM with UACC-257 melanoma; 29.4 µM in the assay on SF-295 CNS; 5.06 µM with HCT-15 colon; 17.9 µM with K-562 leukemia; 26.7 µM in the assay with SNB-75 CNS; 29.5 µM with EKVX NSCLC. The TGI in the assay with LOX IMVI melanoma was found to be 4.73 µM; with U251 CNS, 6.05 µM; in the assay with 786-0 renal, 3.59 µM; in the assay with SF-539 CNS, 8.18 µM.
In the case of `NNC(=S)N/N=C/C(Cl)=C(\Cl)C(=O)O`, the TGI in the assay with UACC-257 melanoma, with SF-295 CNS, with HCT-15 colon, in the assay with K-562 leukemia, with SNB-75 CNS and in the assay on EKVX NSCLC was greater than 100 µM each time. For the same molecule, the TGI in the assay on LOX IMVI melanoma, in the assay on U251 CNS, in the assay on 786-0 renal and in the assay on SF-539 CNS was greater than 100 µM in each case.
For the molecule `O=[N+]([O-])c1cc(/C=N/NS(=O)(=O)c2ccc(F)cc2)c(O)c([N+](=O)[O-])c1`, the TGI in the assay on UACC-257 melanoma is greater than 100 µM; with SF-295 CNS it was greater than 100 µM; with HCT-15 colon it was 67.4 µM; in the assay with K-562 leukemia it was greater than 100 µM; in the assay on SNB-75 CNS, 76.9 µM; in the assay with EKVX NSCLC, greater than 100 µM. In addition, the TGI with LOX IMVI melanoma was greater than 100 µM; in the assay with U251 CNS, 44.7 µM; in the assay with 786-0 renal, greater than 100 µM; with SF-539 CNS, 43.9 µM.
Consider `Cc1cc2c(cc1C)[n+]([O-])c(-c1c(Cl)cccc1Cl)c(N)[n+]2[O-]`, for which the TGI with UACC-257 melanoma was 83.6 µM; in the assay on SF-295 CNS, greater than 100 µM; in the assay on HCT-15 colon it was greater than 100 µM; with K-562 leukemia, greater than 100 µM; in the assay with SNB-75 CNS, greater than 100 µM; in the assay on EKVX NSCLC, greater than 100 µM. Besides, the TGI in the assay on LOX IMVI melanoma, with U251 CNS, with 786-0 renal and in the assay on SF-539 CNS was greater than 100 µM throughout.
Turning to `O=C1CCC(=O)C(C(=O)CCC(=O)Nc2cccc(Cl)c2)C1` (stereo not drawn), the TGI with UACC-257 melanoma, in the assay with SF-295 CNS, with HCT-15 colon, in the assay with K-562 leukemia, in the assay on SNB-75 CNS and in the assay with EKVX NSCLC was greater than 100 µM each time. Besides, the TGI in the assay with LOX IMVI melanoma, in the assay on U251 CNS, in the assay on 786-0 renal and with SF-539 CNS was greater than 100 µM throughout.
As for `CCN(CC)c1ccc2nc3c4ccccc4c(=NC(=O)c4ccccc4-c4c5ccc(N(CC)CC)cc5[o+]c5cc(N(CC)CC)ccc45)cc-3oc2c1`, the GI50 was 1.46 µM in the assay with UACC-257 melanoma; 2.96 µM in the assay on SF-295 CNS; 1.42 µM in the assay on HCT-15 colon; 8.27 µM with SNB-75 CNS; 3.52 µM in the assay on EKVX NSCLC; 1.69 µM in the assay on LOX IMVI melanoma. Further, the GI50 in the assay with U251 CNS is 2.33 µM; in the assay on 786-0 renal it was 2.41 µM; in the assay on SF-539 CNS, 3.24 µM. Further, the TGI in the assay with UACC-257 melanoma was 3.4 µM; in the assay with SF-295 CNS, 14.2 µM; with HCT-15 colon it was 3.9 µM; in the assay with K-562 leukemia, greater than 100 µM; with SNB-75 CNS it was 23.5 µM; in the assay with EKVX NSCLC, greater than 32.6 µM. Moreover, the TGI in the assay with LOX IMVI melanoma worked out at 4.49 µM; in the assay on U251 CNS, 8.83 µM; in the assay with 786-0 renal it was 6.68 µM; with SF-539 CNS it was 8.73 µM.
For `N#C/C(=C\c1ccc(O)cc1O)C(N)=O`, the TGI in the assay with UACC-257 melanoma was greater than 100 µM; in the assay on SF-295 CNS, greater than 100 µM; in the assay with HCT-15 colon it was greater than 100 µM; with K-562 leukemia, greater than 100 µM; in the assay with SNB-75 CNS it was 67.4 µM; in the assay with EKVX NSCLC, greater than 100 µM. The TGI in the assay on LOX IMVI melanoma, with U251 CNS, in the assay with 786-0 renal and with SF-539 CNS was greater than 100 µM throughout.

The record behind these values is PubChem BioAssay (NCI).
